In patent US12090146B2, “Substituted-pyridinyl compounds and uses thereof” (Bionomics Limited, priority 2018, dated 2024):

Assays:
hKv3.1 = target: T1, hKv3.1 (Homo sapiens, UniProt P48547); test: Automated patch clamp (Patchliner) whole-cell electrophysiology, Kv3.1; assay type: cell-based; conditions: 10 μM compound, CHO-K1 cells stably expressing hKv3.1; for Kv3.1 Activity at 10 μM Potentiation (%): % potentiation of peak current at −10 mV voltage step vs vehicle; for Kv3.1 Activity at 10 μM Voltage Shift (mV): voltage shift of the IV curve at V1/2
T1 construct: expressed in transfected cells
T1 sequence (P48547 1-511): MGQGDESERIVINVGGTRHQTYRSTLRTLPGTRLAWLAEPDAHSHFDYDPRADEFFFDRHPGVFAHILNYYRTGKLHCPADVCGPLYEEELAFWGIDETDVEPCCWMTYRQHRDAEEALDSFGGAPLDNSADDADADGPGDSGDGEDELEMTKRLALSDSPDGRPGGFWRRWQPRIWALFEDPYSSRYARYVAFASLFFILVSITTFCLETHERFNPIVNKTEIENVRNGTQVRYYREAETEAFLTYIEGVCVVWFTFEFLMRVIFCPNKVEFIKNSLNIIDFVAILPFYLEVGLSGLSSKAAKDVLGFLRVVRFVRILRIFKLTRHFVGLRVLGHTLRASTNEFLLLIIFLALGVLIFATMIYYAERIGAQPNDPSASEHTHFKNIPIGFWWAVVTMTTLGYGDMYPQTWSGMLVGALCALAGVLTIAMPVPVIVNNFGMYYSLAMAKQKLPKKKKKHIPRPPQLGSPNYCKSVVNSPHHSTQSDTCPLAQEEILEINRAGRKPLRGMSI
Procedure: (§1) hKv3.1, hKv3.2, hKv3.3, and hKv3.4 were stably expressed in CHO-K1 (Chinese hamster ovary) cells and kept under constant antibiotic selection. For in vitro assays, cells were maintained in appropriate growth medium at 37° C. and 5% CO2 in a humidified incubator.
(§2) hKv3.X expressing cells were plated in T-25 flasks for 3-4 days at 37° C. (no selection antibiotic) prior to use and grown to 80% confluence. Cells were washed twice with PBS (calcium and magnesium free) and detached with a 5-minute treatment at 37° C. with 2-3 mls of Accutase®. Cells were collected, and flask was washed in CHO-SFM II media (Life Technologies Gibco), centrifuged for 2 minutes at ˜110×g and resuspended to obtain a single cell suspension of ˜2-3×10^6 cells/ml.
(§3) The intracellular solution contained the following (in mM): KCl 50, NaCl 10, KF 60, EGTA 20, HEPES 10, adjusted to pH 7.2 with KOH and an osmolarity of 285 mOsmol. Seal enhancer was purchased from Nanion (80 mM NaCl, 3 mM KCl, 10 mM MgCl2, 35 mM CaCl2), 10 mM HEPES, pH7.4, 298 mOsmol. The external solution contained (in mM): NaCl 140, KCl 4, CaCl2) 2, MgCl2 1, HEPES 10, Glucose 5, adjusted to pH7.4 and an osmolarity of 298 mOsmol.
(§4) All compounds were initially tested at 10 uM at a final DMSO concentration of 0.33%. Compounds were dissolved in dimethylsulfoxide (DMSO) at a stock concentration of 30 mM. The compound was further diluted 1:10 to give a stock concentration of 3 mM in DMSO. The final assay solution was diluted 1:300 in External solution to give a final concentration of 10 uM. For the DMSO Control Buffer 30 uL of DMSO was added to 10 mL buffer.
(§5) All electrophysiological recordings were performed at ambient temperature (21-23° C.) using automated patch clamp (Patchliner, Nanion Technologies GmbH) in the whole-cell configuration.
(§6) Cell membrane potentials were held at −80 mV, and currents were evoked by voltage steps (1000 ms duration) from −60 to +60 mV in 10 mV increments. This was performed first with vehicle (0.33% DMSO) and then with 10 uM compound, after a 3-minute incubation period. Data was taken from 4 cells per assay.
(§7) The recordings were analysed and selected using peak current amplitude (>100 pA at the −10 mV voltage step) in the absence of compound to eliminate unsuitable cells from analysis. Peak current amplitude was measured and recorded for each voltage step and data was normalised to the maximum current at +60 mV. The normalised Kv3.x currents following addition of the compound were then compared with the currents recorded prior to compound addition (vehicle control). Positive modulation was determined as % potentiation at the voltage step of −10 mV=[current (cmpd)/current (veh)]*100−100. % potentiation ≥50% was considered acceptable. In addition, voltage shift of the IV curve at V1/2 was measured. V1/2 of ≥−5 mV was also considered acceptable. IV curves were plotted in GraphPad Prism (software version 6.0) and fitted with a Boltzmann equation, where V1/2 is the voltage at half-maximal activation.

hKv3.2 = target: T2, hKv3.2 (Homo sapiens, UniProt Q96PR1); test: Automated patch clamp (Patchliner) whole-cell electrophysiology, Kv3.2; assay type: cell-based; conditions: 10 μM compound, CHO-K1 cells stably expressing hKv3.2; for activation at 10 µM: % potentiation of peak current at −10 mV voltage step vs vehicle; for Kv3.2 Activity at 10 μM Voltage Shift (mV): voltage shift of the IV curve at V1/2
T2 construct: expressed in transfected cells
T2 sequence (Q96PR1 1-638): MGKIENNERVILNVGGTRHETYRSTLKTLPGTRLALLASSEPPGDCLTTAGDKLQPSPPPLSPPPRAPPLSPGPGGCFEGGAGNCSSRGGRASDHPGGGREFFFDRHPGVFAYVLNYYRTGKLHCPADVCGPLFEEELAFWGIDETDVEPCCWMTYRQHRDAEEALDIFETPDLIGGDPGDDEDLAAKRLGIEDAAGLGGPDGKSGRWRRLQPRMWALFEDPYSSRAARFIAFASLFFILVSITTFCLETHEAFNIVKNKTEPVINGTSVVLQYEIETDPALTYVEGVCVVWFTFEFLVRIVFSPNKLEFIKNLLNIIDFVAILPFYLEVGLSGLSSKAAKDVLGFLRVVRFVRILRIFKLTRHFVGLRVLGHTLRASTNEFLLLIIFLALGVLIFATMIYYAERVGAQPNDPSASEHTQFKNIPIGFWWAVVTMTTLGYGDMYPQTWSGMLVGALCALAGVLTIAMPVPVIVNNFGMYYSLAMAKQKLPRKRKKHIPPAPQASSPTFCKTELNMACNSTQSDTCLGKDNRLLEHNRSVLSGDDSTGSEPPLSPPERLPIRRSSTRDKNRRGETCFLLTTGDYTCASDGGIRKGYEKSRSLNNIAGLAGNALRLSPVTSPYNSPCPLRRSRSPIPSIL
Procedure: as §1, §2, §3, §4, §5, §6, §7

| Structure (SMILES) | Kv3.1 Activity at 10 μM Potentiation (%) (hKv3.1) | Kv3.1 Activity at 10 μM Voltage Shift (mV) (hKv3.1) | activation at 10 µM (hKv3.2) | Kv3.2 Activity at 10 μM Voltage Shift (mV) (hKv3.2) |
| --- | --- | --- | --- | --- |
| CC[C@@]1(C)NC(=O)N(c2ccnc(Oc3ccc4c(c3)CCC4)c2)C1=O [Example 13, (5R)-5-ethyl-3-(2-indan-5-yloxy-4-pyridyl)-5-methyl-imidazolidine-2,4-dione] | 27% | −3.9 mV | 48% | −4.48 mV |
| CC[C@@]1(C)NC(=O)N(c2ccnc(Oc3ccc4c(c3)OC(F)(F)O4)c2)C1=O [Example 16, (5R)-3-[2-[(2,2-difluoro-1,3-benzodioxol-5-yl)oxy]-4-pyridyl]-5-ethyl-5-methyl-imidazolidine-2,4-dione] |  |  | 47% | −3.63 mV |
| COc1cc(Oc2cc(N3C(=O)NC4(CCN(C)CC4)C3=O)ccn2)ccc1C [Example 30, 3-[2-(3-methoxy-4-methyl-phenoxy)-4-pyridyl]-8-methyl-1,3,8-triazaspiro[4.5]decane-2,4-dione] | 26% | −0.83 mV | -4% | 2.06 mV |
| CC[C@@]1(C)NC(=O)N(c2cccc(Oc3cccc4c3CCC4)n2)C1=O [Example 69, (5R)-5-ethyl-3-(6-indan-4-yloxy-2-pyridyl)-5-methyl-imidazolidine-2,4-dione] | 73% | −3 mV |  |  |
| CC[C@]1(C)NC(=O)N(c2cccc(Oc3ccc(C)c(OC)c3)n2)C1=O [Example 72, (5S)-5-ethyl-3-[6-(3-methoxy-4-methyl-phenoxy)-2-pyridyl]-5-methyl-imidazolidine-2,4-dione] | 33% | −4.25 mV |  |  |
| COc1cc(Oc2cccc(N3C(=O)NC(C)(C)C3=O)n2)ccc1C [Example 73, 3-[6-(3-methoxy-4-methyl-phenoxy)-2-pyridyl]-5,5-dimethyl-imidazolidine-2,4-dione] | 26% | −1.61 mV |  |  |
| CC(C)c1cc(Oc2cccc(N3C(=O)NC(C)(C)C3=O)n2)ccc1C#N [Example 77, 4-[[6-(4,4-dimethyl-2,5-dioxo-imidazolidin-1-yl)-2-pyridyl]oxy]-2-isopropyl-benzonitrile] | 12% | −0.95 mV |  |  |
| CC[C@@]1(C)NC(=O)N(c2ccc(F)c(Oc3ccc(C)c(OC)c3)n2)C1=O [Example 89, (5R)-5-ethyl-3-[5-fluoro-6-(3-methoxy-4-methyl-phenoxy)-2-pyridyl]-5-methyl-imidazolidine-2,4-dione] |  |  | 28% | −2.58 mV |

Next, values leading:

| Kv3.1 Activity at 10 μM Potentiation (%) (hKv3.1) | Kv3.1 Activity at 10 μM Voltage Shift (mV) (hKv3.1) | activation at 10 µM (hKv3.2) | Kv3.2 Activity at 10 μM Voltage Shift (mV) (hKv3.2) | Structure (SMILES) |
| --- | --- | --- | --- | --- |
| 53% | −2.9 mV | 21% | −1.23 mV | COc1cc(Oc2cc(N3C(=O)NC(C)(C)C3=O)ccn2)ccc1C [Example 1, 3-[2-(3-methoxy-4-methyl-phenoxy)-4-pyridyl]-5,5-dimethyl-imidazolidine-2,4-dione] |
| 58% | −4.65 mV | 66% | −6.71 mV | CC1(C)NC(=O)N(c2ccnc(Oc3ccc4c(c3)CCC4)c2)C1=O [Example 3, 3-(2-indan-5-yloxy-4-pyridyl)-5,5-dimethyl-imidazolidine-2,4-dione] |
| 36% | −5.13 mV | 14% | −4.12 mV | COc1cc(Oc2cc(N3C(=O)NC(C)(C)C3=O)ccn2)ccc1C(F)(F)F [Example 4, 3-[2-[3-methoxy-4-(trifluoromethyl)phenoxy]-4-pyridyl]-5,5-dimethyl-imidazolidine-2,4-dione] |
|  |  | 25% | −3.18 mV | COc1cc(Oc2cc(N3C(=O)NC(C)(C)C3=O)ccn2)ccc1F [Example 6, 3-[2-[3-methoxy-4-fluorophenoxy]-4-pyridyl]-5,5-dimethyl-imidazolidine-2,4-dione] |
| 32% | −4.09 mV | 22% | −2.39 mV | COc1cc(Oc2cc(N3C(=O)NC(C)(C)C3=O)ccn2)ccc1Cl [Example 8, 3-[2-(4-chloro-3-methoxy-phenoxy)-4-pyridyl]-5,5-dimethyl-imidazolidine-2,4-dione] |
| 80% | −6.49 mV | 30% | −3.92 mV | CC1(C)NC(=O)N(c2ccnc(Oc3ccc4c(c3)OC(F)(F)O4)c2)C1=O [Example 9, 3-[2-[(2,2-difluoro-1,3-benzodioxol-5-yl)oxy]-4-pyridyl]-5,5-dimethyl-imidazolidine-2,4-dione] |
| 72% | −5.46 mV | 21% | −2.67 mV | CC[C@@]1(C)NC(=O)N(c2ccnc(Oc3ccc(C)c(OC)c3)c2)C1=O [Example 10, (5R)-5-ethyl-3-[2-(3-methoxy-4-methyl-phenoxy)-4-pyridyl]-5-methyl-imidazolidine-2,4-dione] |
|  |  | 42% | −5.52 mV | COc1cc(Oc2cc(N3C(=O)NC4(CCCCC4)C3=O)ccn2)ccc1C [Example 24, 3-[2-(3-methoxy-4-methyl-phenoxy)-4-pyridyl]-1,3-diazaspiro[4.5]decane-2,4-dione] |
| 64% | −5.74 mV | 22% | −2.72 mV | COc1cc(Oc2cc(N3C(=O)NC4(CCCC4)C3=O)ccn2)ccc1C [Example 33, 3-[2-(3-methoxy-4-methyl-phenoxy)-4-pyridyl]-1,3-diazaspiro[4.4]nonane-2,4-dione] |
